Source: US20250171776A1, “NON-CANONICAL CELL-PENETRATING PEPTIDES FOR ANTISENSE OLIGOMER DELIVERY” (priority 2023, published 2025)
Read-outs that look alike come from different tables or passages of the source. Where no end group is shown, it is not given here. [ ]: non-standard residue; d: D form. Api = NC1(C(=O)O)CCNCC1; Dab = NCC[C@H](N)C(=O)O; Iph = iodophenylalanine

System: HELA-654 cells
Assay: Hela-654 eGFP assay (incucyte imaging, GFP positive cells, 72 h)
Assay type: cell-based
Conditions: for Percentage of GFP Positive Cells at 72 hours (20 μM): alanine scan, 20 μM of PPMO; for EC50: 72 h; for Percentage of GFP Positive Cells at 72 hours (30 μM): Iph scan, 30 μM of compound
Procedure: HELA-654 cells were imaged at 72 hours with an incucyte and the number of GFP positive cells versus total cell counts were calculated with the incucyte image analysis software. Statistical analysis was conducted using a one-way analysis of variance (ANOVA) test with Dunnett's multiple comparison test. Bars represent mean±standard deviation (SD), with P<0.05 was considered to indicate statistical significance, (**** p<0.0001, *** […], ** p<0.01, * p<0.05).
HELA-654 cells were imaged at 72 hours with an incucyte and the number of GFP positive cells versus total cell counts were calculated with the incucyte image analysis software.

[1] = CXP1 Dab analogs, read-out: EC50 (at 72 h)
[2] = chimeric peptide PMO conjugates, read-out: EC50 (at 72 h)
[3] = CXP1 analogs (unnatural amino acids replaced), read-out: EC50 (72 h)

“Lys-Gln-Lys-Thr-Ser-Iph-Gly-Arg-Ala-Pip-Lys-Trp-Lys-Lys (KQKTS[Iph]GRA[Api]KWKK; also: PMO conjugate) [PMO-CXP1J]” was tested, and the “Percentage of GFP Positive Cells at 72 hours (20 μM)” value (shortened to “Percentage … (20 μM)”) was 53.2%.
“Lys-Ala-Lys-Thr-Ser-Iph-Gly-Arg-Gly-Pip-Lys-Trp-Lys-Lys (KAKTS[Iph]GRG[Api]KWKK; also: PMO conjugate) [PMO-CXP1C]” was tested, and the “Percentage … (20 μM)” value was 50.0%.
“Lys-Gln-Lys-Thr-Ser-Iph-Gly-Arg-Gly-Pip-Ala-Trp-Lys-Lys (KQKTS[Iph]GRG[Api]AWKK; also: PMO conjugate) [PMO-CXP1L]” was tested, and the “Percentage … (20 μM)” value was 41.8%.
In the case of “Lys-Gln-Lys-Thr-Ser-Iph-Gly-Arg-Gly-Pip-Lys-Trp-Lys-Ala-Lys-Trp-Lys-Lys (KQKTS[Iph]GRG[Api]KWKAKWKK; not fully specified (C-terminus); printed as Lys-Gln-Lys-Thr-Ser-Iph-Gly-Arg-Gly-Pip-Lys-Trp-Lys-Ala-Lys-Trp-Lys-Lys; also: PMO conjugate) [PMO-CXP1O]”, the “Percentage … (20 μM)” value is reported as 39.2%.
With “Lys-Gln-Lys-Thr-Ser-Iph-Gly-Arg-Gly-Pip-Lys-Ala-Lys-Lys (KQKTS[Iph]GRG[Api]KAKK; also: PMO conjugate) [PMO-CXP1M]” the “Percentage … (20 μM)” value was 51.0%.
“Dab-Gln-Dab-Thr-Ser-Iph-Gly-Arg-Gly-Dab-Dab-Trp-Dab-Dab-Lys-Trp-Lys-Lys ([Dab]Q[Dab]TS[Iph]GRG[Dab][Dab]W[Dab][Dab]KWKK; also: PMO conjugate) [PMO-CXP1AE]” was tested, and the EC50 [1] was 6.38 µM.
In the case of “Lys-Gln-Lys-Thr-Ser-Iph-Ala-Arg-Ala-Pip-Lys-Trp-Lys-Lys (KQKTS[Iph]ARA[Api]KWKK; also: PMO conjugate) [PMO-CXP1P]”, the “Percentage … (20 μM)” value is reported as 41.6%.
Work on “Lys-Gln-Lys-Thr-Ser-Lys-Gln-Lys-Thr-Ser-Iph-Gly-Arg-Gly-Pip-Lys-Trp-Lys-Lys (KQKTSKQKTS[Iph]GRG[Api]KWKK; not fully specified (C-terminus); printed as Lys-Gln-Lys-Thr-Ser-Lys-Gln-Lys-Thr-Ser-Iph-Gly-Arg-Gly-Pip-Lys-Trp-Lys-Lys; also: PMO conjugate) [SC-CXP1]” yielded an EC50 [2] of 4.01 µM.
“Dab-Pro-Arg-Dab-Leu-His-Ser-Dab-Ala-Thr-Lys-Trp-Lys-Lys ([Dab]PR[Dab]LHS[Dab]ATKWKK; also: PMO conjugate) [PMO-CXP5]” showed an EC50 (read-out: EC50 (at 72 h)) of 10 µM.
“Lys-Gln-Lys-Thr-Ser-Iph-Gly-Arg-Gly-Pip-Lys-Trp-Iph-Lys [PMO-CXP1V]” was tested, and the “Percentage of GFP Positive Cells at 72 hours (30 μM)” value (from here on “Percentage … (30 μM)”) was 86.4%.
With “Dab-Gln-Dab-Thr-Ser-Iph-Gly-Dab-Gly-Pip-Dab-Trp-Dab-Dab-Lys-Trp-Lys-Lys [PMO-CXP1AD]” the EC50 [1] was 5.64 µM.
“Lys-Gln-Lys-Thr-Ser-Iph-Gly-Lys-Gly-Pip-Lys-Trp-Lys-Lys (KQKTS[Iph]GKG[Api]KWKK; not fully specified (C-terminus); printed as Lys-Gln-Lys-Thr-Ser-Iph-Gly-Lys-Gly-Pip-Lys-Trp-Lys-Lys; also: PMO conjugate) [PMO-CXP1AA]” gave an EC50 [3] of 13.1 µM.
Work on “Dab-Gln-Dab-Thr-Ser-Iph-Gly-Dab-Gly-Dab-Dab-Trp-Dab-Dab-Lys-Trp-Lys-Lys [PMO-CXP1AF]” yielded an EC50 [1] of 5.73 µM.
With “Lys-Gln-Lys-Thr-Ala-Iph-Gly-Arg-Gly-Pip-Lys-Trp-Lys-Lys (KQKTA[Iph]GRG[Api]KWKK; also: PMO conjugate) [PMO-CXP1F]” the “Percentage … (20 μM)” value was 65.5%.
For “Lys-Gln-Lys-Thr-Ser-Iph-Gly-Iph-Gly-Pip-Lys-Trp-Lys-Lys (KQKTS[Iph]G[Iph]G[Api]KWKK; not fully specified (C-terminus); printed as Lys-Gln-Lys-Thr-Ser-Iph-Gly-Iph-Gly-Pip-Lys-Trp-Lys-Lys; also: PMO conjugate) [PMO-CXP1S]”, the “Percentage … (30 μM)” value was 82.3%.
In the case of “Lys-Gln-Lys-Thr-Ser-Iph-Gly-Arg-Gly-Pip-Lys-Trp-Lys-Iph-Lys-Trp-Lys-Lys (KQKTS[Iph]GRG[Api]KWK[Iph]KWKK; not fully specified (C-terminus); printed as Lys-Gln-Lys-Thr-Ser-Iph-Gly-Arg-Gly-Pip-Lys-Trp-Lys-Iph-Lys-Trp-Lys-Lys; also: PMO conjugate) [PMO-CXP1W]”, the “Percentage … (30 μM)” value is reported as 94.11%.
In the case of “Lys-Gln-Lys-Thr-Ser-Iph-Gly-Arg-Gly-Iph-Lys-Trp-Lys-Lys (KQKTS[Iph]GRG[Iph]KWKK; also: PMO conjugate) [PMO-CXP1T]”, the “Percentage … (30 μM)” value is reported as 36.5%.
In the case of “Lys-Gln-Ala-Thr-Ser-Iph-Gly-Arg-Gly-Pip-Lys-Trp-Lys-Lys (KQATS[Iph]GRG[Api]KWKK; also: PMO conjugate) [PMO-CXP1D]”, the “Percentage … (20 μM)” value is reported as 48.2%.
“Dab-Gln-Dab-Thr-Ser-Iph-Gly-Arg-Gly-Pip-Dab-Trp-Dab-Dab-Lys-Trp-Lys-Lys ([Dab]Q[Dab]TS[Iph]GRG[Api][Dab]W[Dab][Dab]KWKK; also: PMO conjugate) [PMO-CXP1AC]” gave an EC50 [1] of 4.75 µM.
For “Lys-Gln-Lys-Thr-Ser-Iph-Gly-Ala-Gly-Pip-Lys-Trp-Lys-Lys (KQKTS[Iph]GAG[Api]KWKK; also: PMO conjugate) [PMO-CXP1I]”, the “Percentage … (20 μM)” value was 42.0%.
In the case of “Lys-Gln-Lys-Thr-Ser-Iph-Gly-Arg-Gly-Pip-Lys-Trp-Ala-Lys (KQKTS[Iph]GRG[Api]KWAK; not fully specified (C-terminus); printed as Lys-Gln-Lys-Thr-Ser-Iph-Gly-Arg-Gly-Pip-Lys-Trp-Ala-Lys; also: PMO conjugate) [PMO-CXP1N]”, the “Percentage … (20 μM)” value is reported as 45.4%.
“GCTATTACCTTAACCCAG (all phosphorodiamidate morpholino (PMO)) [reference compound]” showed an EC50 (read-out: EC50 (at 72 h)) of 22.7 µM.
“Ala-Gln-Lys-Thr-Ser-Iph-Gly-Arg-Gly-Pip-Lys-Trp-Lys-Lys (AQKTS[Iph]GRG[Api]KWKK; also: PMO conjugate) [PMO-CXP1B]” was tested, and the “Percentage … (20 μM)” value was 50.5%.
“Lys-Gln-Lys-Thr-Ser-Phe-Gly-Arg-Gly-Lys-Lys-Trp-Lys-Lys (KQKTSFGRGKKWKK; also: PMO conjugate) [PMO-CXP1Z]” showed an EC50 [3] of 21.1 µM.
For “Lys-Gln-Iph-Thr-Ser-Iph-Gly-Arg-Gly-Pip-Lys-Trp-Lys-Lys (KQ[Iph]TS[Iph]GRG[Api]KWKK; also: PMO conjugate) [PMO-CXP1R]”, the “Percentage … (30 μM)” value was 87.6%.
With “Lys-Trp-Lys-Lys-Gln-Lys-Thr-Ser-Iph-Gly-Arg-Gly-Pip-Lys-Trp-Lys-Lys (KWKKQKTS[Iph]GRG[Api]KWKK; not fully specified (N-terminus, C-terminus); printed as Lys-Trp-Lys-Lys-Gln-Lys-Thr-Ser-Iph-Gly-Arg-Gly-Pip-Lys-Trp-Lys-Lys; also: PMO conjugate) [SD-CXP1]” the EC50 [2] was 2.28 µM.
With “Iph-Gln-Lys-Thr-Ser-Iph-Gly-Arg-Gly-Pip-Lys-Trp-Lys-Lys ([Iph]QKTS[Iph]GRG[Api]KWKK; also: PMO conjugate) [PMO-CXP1Q]” the “Percentage … (30 μM)” value was 85%.
